The IC50 is the concentration that gives 50% inhibition.

This experiment has as its target T1, human JAK2 (Homo sapiens, UniProt O60674).
T1 construct: JAK2 (a.a. 828-1132); His tag (N); made in house; host or cells: insect cells (baculovirus)
As to the kind of experiment: In vitro JAK kinase assay (HTRF, phosphorylation of biotinylated peptide). In kind it is biochemical. To be noted: catalytic domain a.a. 828-1132, 30 μM ATP, 500 nM peptide, room temperature 1 hr; read-out: JAK-2 IC50. The method, boiled down:
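IC50 from HTRF detection (Eu-Py20 antibody, SA-APC) of biotinylated-peptide phosphorylation (500 nM), run 1 h at RT. Enzyme: N-His human JAK2 kinase domain a.a. 828-1132 from insect cells; ATP 30 μM; buffer 50 mM Tris pH 7.8 with NaCl, DTT, BSA.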
A general note: Time-resolved FRET reads energy transfer from a long-lived donor to a nearby acceptor.

T1 sequence (O60674 828-1132): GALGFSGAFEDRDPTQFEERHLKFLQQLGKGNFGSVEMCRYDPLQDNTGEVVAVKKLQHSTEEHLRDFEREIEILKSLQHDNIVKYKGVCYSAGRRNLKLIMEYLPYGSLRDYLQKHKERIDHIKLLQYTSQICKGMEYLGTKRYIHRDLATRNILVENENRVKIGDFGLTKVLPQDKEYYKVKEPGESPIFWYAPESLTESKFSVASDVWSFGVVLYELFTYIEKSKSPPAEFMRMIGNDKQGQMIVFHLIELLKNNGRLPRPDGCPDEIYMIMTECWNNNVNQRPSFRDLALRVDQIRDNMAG

Take `N#CCC(C1CCCC1)n1cc(-c2ccnc(Nc3ccc(C(=O)NCC4CC4)cc3)n2)cn1` (racemic) [Example 126, 4-(4-(1-(2-cyano-1-cyclopentylethyl)-1H-pyrazol-4-yl)pyrimidin-2-ylamino)-N-(cyclopropylmethyl)benzamide]: the IC50 is less than 100 nM.

Turning to `Cc1cnc(Nc2ccc(N3CCNCC3)cc2)nc1-c1cnn(C(CC#N)C2CCCC2)c1` (racemic) [Example 78, 3-cyclopentyl-3-(4-(5-methyl-2-(4-(piperazin-1-yl)phenylamino)pyrimidin-4-yl)-1H-pyrazol-1-yl)propanenitrile], the IC50 is less than 100 nM.

For the compound `CC(NC(=O)c1cccc(Nc2nccc(-c3cnn(C(CC#N)C4CCCC4)c3)n2)c1)c1ccccn1` (mixture of isomers) [Example 156, 3-(4-(1-(2-cyano-1-cyclopentylethyl)-1H-pyrazol-4-yl)pyrimidin-2-ylamino)-N-(1-(pyridin-2-yl)ethyl)benzamide], the IC50 was less than 100 nM.

`Cc1cccc(S(=O)(=O)Nc2ccc(Nc3nccc(-c4cnn(C(CC#N)C5CCCC5)c4)n3)cc2)n1` (racemic) [Example 194, N-(4-(4-(1-(2-cyano-1-cyclopentylethyl)-1H-pyrazol-4-yl)pyrimidin-2-ylamino)phenyl)-6-methylpyridine-2-sulfonamide]: the IC50 is less than 100 nM.

For the compound `N#CCC(C1CCCC1)n1cc(-c2ccnc(Nc3cccc(C(=O)N4CCCC4)c3)n2)cn1` (racemic) [Example 139, 3-cyclopentyl-3-(4-(2-(3-(pyrrolidine-1-carbonyl)phenylamino)pyrimidin-4-yl)-1H-pyrazol-1-yl)propanenitrile], the IC50 was less than 100 nM.

`N#CCC(C1CCCC1)n1cc(-c2ccnc(Nc3ccc(NS(=O)(=O)c4ccc(Cl)s4)cc3)n2)cn1` (racemic) [Example 196, 5-chloro-N-(4-(4-(1-(2-cyano-1-cyclopentylethyl)-1H-pyrazol-4-yl)pyrimidin-2-ylamino)phenyl)thiophene-2-sulfonamide]: the half-inhibitory concentration (IC50) is less than 100 nM.

For the compound `CN1CCC(NC(=O)c2ccc(Nc3nccc(-c4cnn(C(CC#N)C5CCCC5)c4)n3)cc2)CC1` (racemic) [Example 227, 4-(4-(1-(2-cyano-1-cyclopentylethyl)-1H-pyrazol-4-yl)pyrimidin-2-ylamino)-N-(1-methylpiperidin-4-yl)benzamide], the IC50 was less than 100 nM.

Regarding `N#CCC(C1CCCC1)n1cc(-c2ccnc(Nc3cccc(C(=O)N[C@H]4CCN(Cc5ccccc5)C4)c3)n2)cn1` (mixture of isomers) [Example 167, N—((S)-1-benzylpyrrolidin-3-yl)-3-(4-(1-(2-cyano-1-cyclopentylethyl)-1H-pyrazol-4-yl)pyrimidin-2-ylamino)benzamide], the IC50 is less than 100 nM.

`CC1(C)NC(=O)O[C@]12CCN(C(=O)c1ccc(Nc3nccc(-c4cnn(C(CC#N)C5CCCC5)c4)n3)cc1)C2` (single isomer, unassigned) [Example 219, 3-cyclopentyl-3-(4-(2-(4-((S*)-4,4-dimethyl-2-oxo-1-oxa-3,7-diazaspiro[4.4]nonane-7-carbonyl)phenylamino)pyrimidin-4-yl)-1H-pyrazol-1-yl)propanenitrile]: the IC50 was less than 100 nM.

As to `CO[C@H]1CCN(C(=O)c2ccc(Nc3nccc(-c4cnn(C5(CC#N)CC(C#N)C5)c4)n3)cc2)C1` (single isomer, unassigned) [Example 296], the IC50 is less than 100 nM.

Turning to `COc1cnc(Nc2cccc(-c3cnco3)c2)nc1-c1cnn(C(CC#N)C2CC2)c1` (racemic) [Example 320, 3-cyclopropyl-3-[4-(5-methoxy-2-{[3-(1,3-oxazol-5-yl)phenyl]amino}pyrimidin-4-yl)-1H-pyrazol-1-yl]propanenitrile], the IC50 was less than 100 nM.

On to `N#CCC(C1CCCC1)n1cc(-c2ccnc(Nc3cccc(C(=O)N4CCNC(=O)C4)c3)n2)cn1` (racemic) [Example 140, 3-cyclopentyl-3-(4-(2-(3-(3-oxopiperazine-1-carbonyl)phenylamino)pyrimidin-4-yl)-1H-pyrazol-1-yl)propanenitrile], for which the IC50 is less than 100 nM.

On to `N#CCC(C1CCCC1)n1cc(-c2ccnc(Nc3ccc(C(=O)N[C@H]4CC[C@@H](O)CC4)cc3)n2)cn1` (mixture of isomers) [Example 223, 4-(4-(1-(2-cyano-1-cyclopentylethyl)-1H-pyrazol-4-yl)pyrimidin-2-ylamino)-N-(cis-4-hydroxycyclohexyl)benzamide], for which the 50% inhibitory concentration (IC50) is less than 100 nM.

Consider `N#CCC(C1CCC1)n1cc(-c2ccnc(Nc3ccc(N4CCCCC4=O)cc3)n2)cn1` (racemic) [Example 174, 3-cyclobutyl-3-(4-(2-(4-(2-oxopiperidin-1-yl)phenylamino)pyrimidin-4-yl)-1H-pyrazol-1-yl)propanenitrile], for which the IC50 was less than 100 nM.

Take `Cc1cnc(Nc2ccc(C(=O)N3CCC(O)CC3)cc2)nc1-c1cnn(C(CC#N)C2CCCC2)c1` (racemic) [Example 88, 3-cyclopentyl-3-(4-(2-(4-(4-hydroxypiperidine-1-carbonyl)phenylamino)-5-methylpyrimidin-4-yl)-1H-pyrazol-1-yl)propanenitrile]: the IC50 was less than 100 nM.

Turning to `COc1cnc(Nc2cccc(-c3ccnc(C)n3)c2)nc1-c1cnn(C(CC#N)C2CCCC2)c1` (racemic) [Example 134, 3-cyclopentyl-3-(4-(5-methoxy-2-(3-(2-methylpyrimidin-4-yl)phenylamino)pyrimidin-4-yl)-1H-pyrazol-1-yl)propanenitrile], the IC50 was less than 100 nM.

On to `Cc1cnc(Nc2ccc(N3CCOCC3)cc2)nc1-c1cnn(C(CC#N)CC2CCN(S(=O)(=O)c3ccn(C)n3)CC2)c1` (racemic) [Example 61, 4-(1-(1-methyl-1H-pyrazol-3-ylsulfonyl)piperidin-4-yl)-3-(4-(5-methyl-2-(4-morpholinophenylamino)pyrimidin-4-yl)-1H-pyrazol-1-yl)butanenitrile], for which the IC50 is less than 100 nM.

As to `COC(=O)Nc1cccc(Nc2nccc(-c3cnn(C(CC#N)C4CCCC4)c3)n2)c1` (racemic) [Example 116, Methyl 3-(4-(1-(2-cyano-1-cyclopentylethyl)-1H-pyrazol-4-yl)pyrimidin-2-ylamino)phenylcarbamate], the IC50 is less than 100 nM.

Consider `N#CCC(C1CCCC1)n1cc(-c2ccnc(Nc3ccc(NC(=O)O[C@@H]4CCOC4)cc3)n2)cn1` (mixture of isomers) [Example 199, (R)-tetrahydrofuran-3-yl 4-(4-(1-(2-cyano-1-cyclopentylethyl)-1H-pyrazol-4-yl)pyrimidin-2-ylamino)phenylcarbamate], for which the IC50 was less than 100 nM.

`N#CCC1(n2cc(-c3ccnc(Nc4ccc(C(N)=O)cc4)n3)cn2)CCN(S(=O)(=O)C2CC2)CC1` [Example 30, 4-(4-(1-(4-(cyanomethyl)-1-(cyclopropylsulfonyl)piperidin-4-yl)-1H-pyrazol-4-yl)pyrimidin-2-ylamino)benzamide]: the IC50 was less than 100 nM.

For the compound `COc1ccc(Nc2ncc(C)c(-c3cnn(C(CC#N)C4CCCC4)c3)n2)cc1` (racemic) [Example 75, 3-cyclopentyl-3-(4-(2-(4-methoxyphenylamino)-5-methylpyrimidin-4-yl)-1H-pyrazol-1-yl)propanenitrile], the IC50 was less than 100 nM.

With `CS(=O)(=O)N1CCC(C(CC#N)n2cc(-c3ccnc(Nc4ccc(N5CCOCC5)cc4)n3)cn2)CC1` (racemic) [Example 24, 3-(1-(methylsulfonyl)piperidin-4-yl)-3-(4-(2-(4-morpholinophenylamino)pyrimidin-4-yl)-1H-pyrazol-1-yl)propanenitrile], the IC50 is less than 100 nM.

Source of the values: patent US8309718B2, “4-pyrazolyl-N-arylpyrimidin-2-amines and 4-pyrazolyl-N-heteroarylpyrimidin-2-amines as janus kinase inhibitors” (Incyte Corporation, priority 2007, dated 2012).
